Legend:
[1] = Spin labelling (EPR) with n-SASL to find the position in the membrane; format: physicochemical; details: for location of the molecule in the bilayer: EPR spectra of n-SASL (positions 5, 7, 10, 12, 16) in DPPC liposomes; for position of the reactive hydroxyl group in the bilayer: EPR, DPPC liposomes
Experimental: (§1) As the antioxidant efficacy of both products is related to their partitioning between the water and lipid phase and to their position in the membrane bilayer, an investigation was carried out on the interactions of resveratrol and piceid in multilamellar liposomes of saturated L-alpha-phosphatidylcholine (PC) of various chain lengths (dimyristoyl, DMPC; dipalmitoyl, DPPC; distearoyl, DSPC) to determine: a) partition coefficients of the stilbenes between liposomes and water; b) modification of lipid bilayer organization; c) their position in the membrane using differential calorimetric analysis (DSC) and spin labelling (EPR).

[2] = Differential calorimetric analysis (DSC) of the gel-to-fluid transition of liposomes; format: physicochemical; details: DMPC, DPPC, DSPC multilamellar liposomes at increasing stilbene concentrations
Experimental: as §1

[3] = Partition coefficients of the stilbenes between liposomes and water; format: physicochemical; details: for partitioning between water and lipid phase: liposomes / water
Experimental: as §1

[4] = Inhibition of linoleic acid peroxidation, followed by oxygen consumption after thermal initiation by ABIP; format: biochemical; details: 37 °C; for decrease in oxygen consumption (inhibition of lipid peroxidation): radical reaction thermally initiated by ABIP, after addition of antioxidant
Experimental: The effect of the antioxidants on lipid peroxidation was verified by measuring the quantity of oxygen consumed at 37 °C as a consequence of the radical reaction thermally initiated by ABIP.

[5] = Free radical neutralization followed spectrophotometrically (disappearance of the band at 515 nm); format: biochemical; details: radical neutralizing activity, spectrophotometric
Source text: (§2) With DHHP, the radical neutralizing activity was instead followed spectrophotometrically by measuring the initial rate (Vo) of the disappearance of its characteristic band at 515 nm. […] It was also required to verify whether the two products examined are able to react with the free radical initiators before the latter activate lipid peroxidation in the membrane.

[6] = Reaction with free radicals and radical initiators before they activate lipid peroxidation; format: biochemical
Source text: as §2

| hydrophobicity from partition coefficient measurements ([3]; between liposomes and water) | SMILES | location of the molecule in the bilayer [1] | position of the reactive hydroxyl group in the bilayer [1] | DSC profiles of the gel-to-fluid state transition [2] | partitioning between water and lipid phase [3] | duration of the inhibitory effect on oxygen consumption ([4]; ABIP-initiated, compared with vitamin E and BHT) | decrease in oxygen consumption (inhibition of lipid peroxidation) [4] | initial rate (Vo) of the disappearance of its characteristic band at 515 nm [5] | reactivity with the free radicals and radical initiators under examination ([6]; in water, before initiators activate lipid peroxidation in the membrane) | effectiveness (quantitative evaluations) ([6]; piceid compared with resveratrol) |
| --- | --- | --- | --- | --- | --- | --- | --- | --- | --- | --- |
| – | Oc1ccc(C=Cc2cc(O)cc(O)c2)cc1 [resveratrol] | located in the hydrophobic region of the bilayer | very close to the two double bonds of the polyunsaturated fatty acids (PUFA) | broadened and shifted towards lower temperatures | sufficiently lipophilic to partition themselves almost exclusively in the lipid phase | – | – | – | – | – |
| less hydrophobic than resveratrol | OC[C@H]1O[C@@H](Oc2cc(O)cc(/C=C/c3ccc(O)cc3)c2)[C@H](O)[C@@H](O)[C@@H]1O [piceid] | located in the hydrophobic region of the bilayer although piceid is closer to the hydrophilic region | very close to the two double bonds of the polyunsaturated fatty acids (PUFA) | broadened and shifted towards lower temperatures | sufficiently lipophilic to partition themselves almost exclusively in the lipid phase | more prolonged effect over time | steady decrease in oxygen consumption greater than that of vitamin E and BHT | comparable to those of BHT (although lower than those of vitamin E) | react with all the free radicals and radical initiators under examination | more effective than resveratrol |
| – | Cc1cc(C(C)(C)C)c(O)c(C(C)(C)C)c1 [BHT, 2,6-di-tert-butyl-4-methyl-phenol, reference compound] | – | located more deeply | – | – | – | brief initial period of strong inhibition | – | – | – |
| – | Cc1c(C)c2c(c(C)c1O)CC[C@@](C)(CCC[C@H](C)CCC[C@H](C)CCCC(C)C)O2 [vitamin E, alpha-tocopherol, reference compound] | – | more displaced towards the polar surface | – | – | – | brief initial period of strong inhibition | – | – | – |

— EP2087894B1, “FORMULATIONS COMPRISING PICEID ABLE TO PREVENT AND INHIBIT LIPID PEROXIDATION” (Glures S.R.L., priority 2008, dated 2009)
